Experimental data taken from patent US20240237643A1, “COMPOSITIONS WITH VIRUCIDAL AND/OR ANTIVIRAL ACTIVITY” (priority 2020, published 2024).

Columns and labels:
Assay in all cases: Virucidal activity, quantitative suspension test DIN EN 14476
Assay type in all cases: cell-based
Influenza virus (H1N1) = tested on: Influenza virus (H1N1)
Coronavirus (MHV-3) = tested on: Coronavirus (MHV-3)
Procedure: Testing was conducted over a period of 1 to 10 minutes. Activity against the following viruses was determined: • Coronavirus (MHV-3) • Influenza virus (H1N1) • Herpes simplex virus (HV) • Human respiratory syncytial virus (HRSV)
In this context (+) means that more than 99.99% of all viruses were inactivated; this is equivalent to a reduction factor of 10,000.

[1] = tested on: Human respiratory syncytial virus (HRSV)
[2] = tested on: Herpes simplex virus (HV)
[3] = 0.1 wt.-percent in water, 1 min
[4] = 0.1 wt.-percent in water, 10 min
[5] = 10 wt.-percent in water, 10 min
[6] = 33 wt.-percent in water, 10 min

| Structure (SMILES) | Virucidal activity H1N1 (Influenza virus (H1N1); [3]) | Virucidal activity H1N1 (Influenza virus (H1N1); [4]) | Virucidal activity H1N1 (Influenza virus (H1N1); 1 wt.-percent in water, 1 min) | Virucidal activity H1N1 (Influenza virus (H1N1); 1 wt.-percent in water, 10 min) | Virucidal activity H1N1 (Influenza virus (H1N1); 10 wt.-percent in water, 1 min) | Virucidal activity H1N1 (Influenza virus (H1N1); [5]) | Virucidal activity MHV-3 (Coronavirus (MHV-3); [3]) | Virucidal activity MHV-3 (Coronavirus (MHV-3); [4]) | Virucidal activity MHV-3 (Coronavirus (MHV-3); 1 wt.-percent in water, 1 min) | Virucidal activity MHV-3 (Coronavirus (MHV-3); 1 wt.-percent in water, 10 min) | Virucidal activity MHV-3 (Coronavirus (MHV-3); 10 wt.-percent in water, 1 min) | Virucidal activity MHV-3 (Coronavirus (MHV-3); [5]) | Virucidal activity HRSV [1, 3] | Virucidal activity HRSV [1, 4] | Virucidal activity HRSV ([1]; 1 wt.-percent in water, 1 min) | Virucidal activity HRSV ([1]; 1 wt.-percent in water, 10 min) | Virucidal activity HRSV ([1]; 10 wt.-percent in water, 1 min) | Virucidal activity HRSV [1, 5] | Virucidal activity HV [2, 3] | Virucidal activity HV [2, 4] | further results |
| --- | --- | --- | --- | --- | --- | --- | --- | --- | --- | --- | --- | --- | --- | --- | --- | --- | --- | --- | --- | --- | --- |
| CCCCCCCCC(O)CO (centres unmarked) [1,2-decanediol] | (+) ((+) means that more than 99.99% of all viruses were inactivated; this is equivalent to a reduction factor of 10,000) | (+) ((+) means that more than 99.99% of all viruses were inactivated; this is equivalent to a reduction factor of 10,000) | (+) ((+) means that more than 99.99% of all viruses were inactivated; this is equivalent to a reduction factor of 10,000) | (+) ((+) means that more than 99.99% of all viruses were inactivated; this is equivalent to a reduction factor of 10,000) | (+) ((+) means that more than 99.99% of all viruses were inactivated; this is equivalent to a reduction factor of 10,000) | (+) ((+) means that more than 99.99% of all viruses were inactivated; this is equivalent to a reduction factor of 10,000) | (+) ((+) means that more than 99.99% of all viruses were inactivated; this is equivalent to a reduction factor of 10,000) | (+) ((+) means that more than 99.99% of all viruses were inactivated; this is equivalent to a reduction factor of 10,000) | (+) ((+) means that more than 99.99% of all viruses were inactivated; this is equivalent to a reduction factor of 10,000) | (+) ((+) means that more than 99.99% of all viruses were inactivated; this is equivalent to a reduction factor of 10,000) | (+) ((+) means that more than 99.99% of all viruses were inactivated; this is equivalent to a reduction factor of 10,000) | (+) ((+) means that more than 99.99% of all viruses were inactivated; this is equivalent to a reduction factor of 10,000) | (+) ((+) means that more than 99.99% of all viruses were inactivated; this is equivalent to a reduction factor of 10,000) | (+) ((+) means that more than 99.99% of all viruses were inactivated; this is equivalent to a reduction factor of 10,000) | (+) ((+) means that more than 99.99% of all viruses were inactivated; this is equivalent to a reduction factor of 10,000) | (+) ((+) means that more than 99.99% of all viruses were inactivated; this is equivalent to a reduction factor of 10,000) | (+) ((+) means that more than 99.99% of all viruses were inactivated; this is equivalent to a reduction factor of 10,000) | (+) ((+) means that more than 99.99% of all viruses were inactivated; this is equivalent to a reduction factor of 10,000) | (+) ((+) means that more than 99.99% of all viruses were inactivated; this is equivalent to a reduction factor of 10,000) | (+) ((+) means that more than 99.99% of all viruses were inactivated; this is equivalent to a reduction factor of 10,000) | Virucidal activity HV ([2]; 1 wt.-percent in water, 1 min): (+) ((+) means that more than 99.99% of all viruses were inactivated; this is equivalent to a reduction factor of 10,000); Virucidal activity HV ([2]; 1 wt.-percent in water, 10 min): (+) ((+) means that more than 99.99% of all viruses were inactivated; this is equivalent to a reduction factor of 10,000); Virucidal activity HV ([2]; 10 wt.-percent in water, 1 min): (+) ((+) means that more than 99.99% of all viruses were inactivated; this is equivalent to a reduction factor of 10,000); Virucidal activity HV [2, 5]: (+) ((+) means that more than 99.99% of all viruses were inactivated; this is equivalent to a reduction factor of 10,000) |
| CCCCC(O)CO (centres unmarked) [1,2-hexanediol] | – | – | – | – | – | – | – | – | – | – | – | – | – | – | – | – | – | – | – | – | Virucidal activity H1N1 (Influenza virus (H1N1); 33 wt.-percent in water, 1 min): (+) ((+) means that more than 99.99% of all viruses were inactivated; this is equivalent to a reduction factor of 10,000); Virucidal activity MHV-3 (Coronavirus (MHV-3); 33 wt.-percent in water, 1 min): (+) ((+) means that more than 99.99% of all viruses were inactivated; this is equivalent to a reduction factor of 10,000); Virucidal activity HRSV ([1]; 33 wt.-percent in water, 1 min): (+) ((+) means that more than 99.99% of all viruses were inactivated; this is equivalent to a reduction factor of 10,000); Virucidal activity HV ([2]; 33 wt.-percent in water, 1 min): (+) ((+) means that more than 99.99% of all viruses were inactivated; this is equivalent to a reduction factor of 10,000) |
| CCCCCCC(O)CO (centres unmarked) [1,2-octanediol] | – | – | – | – | – | – | – | – | – | – | – | – | – | – | – | – | – | – | – | – | Virucidal activity H1N1 (Influenza virus (H1N1); [6]): (+) ((+) means that more than 99.99% of all viruses were inactivated; this is equivalent to a reduction factor of 10,000); Virucidal activity MHV-3 (Coronavirus (MHV-3); [6]): (+) ((+) means that more than 99.99% of all viruses were inactivated; this is equivalent to a reduction factor of 10,000); Virucidal activity HRSV [1, 6]: (+) ((+) means that more than 99.99% of all viruses were inactivated; this is equivalent to a reduction factor of 10,000); Virucidal activity HV [2, 6]: (+) ((+) means that more than 99.99% of all viruses were inactivated; this is equivalent to a reduction factor of 10,000) |
| CCCC(O)CO (centres unmarked) [1,2-pentanediol] | – | – | – | – | – | – | – | – | – | – | – | – | – | – | – | – | – | – | – | – | Virucidal activity H1N1 (Influenza virus (H1N1); 33 wt.-percent in water, 1 min): (+) ((+) means that more than 99.99% of all viruses were inactivated; this is equivalent to a reduction factor of 10,000); Virucidal activity H1N1 (Influenza virus (H1N1); 33 wt.-percent in water, 5 min): (+) ((+) means that more than 99.99% of all viruses were inactivated; this is equivalent to a reduction factor of 10,000); Virucidal activity H1N1 (Influenza virus (H1N1); [6]): (+) ((+) means that more than 99.99% of all viruses were inactivated; this is equivalent to a reduction factor of 10,000); Virucidal activity MHV-3 (Coronavirus (MHV-3); 33 wt.-percent in water, 1 min): (+) ((+) means that more than 99.99% of all viruses were inactivated; this is equivalent to a reduction factor of 10,000); Virucidal activity MHV-3 (Coronavirus (MHV-3); 33 wt.-percent in water, 5 min): (+) ((+) means that more than 99.99% of all viruses were inactivated; this is equivalent to a reduction factor of 10,000); Virucidal activity MHV-3 (Coronavirus (MHV-3); [6]): (+) ((+) means that more than 99.99% of all viruses were inactivated; this is equivalent to a reduction factor of 10,000); Virucidal activity HRSV ([1]; 33 wt.-percent in water, 1 min): (+) ((+) means that more than 99.99% of all viruses were inactivated; this is equivalent to a reduction factor of 10,000); Virucidal activity HRSV ([1]; 33 wt.-percent in water, 5 min): (+) ((+) means that more than 99.99% of all viruses were inactivated; this is equivalent to a reduction factor of 10,000); Virucidal activity HRSV [1, 6]: (+) ((+) means that more than 99.99% of all viruses were inactivated; this is equivalent to a reduction factor of 10,000); Virucidal activity HV ([2]; 33 wt.-percent in water, 1 min): (+) ((+) means that more than 99.99% of all viruses were inactivated; this is equivalent to a reduction factor of 10,000); Virucidal activity HV ([2]; 33 wt.-percent in water, 5 min): (+) ((+) means that more than 99.99% of all viruses were inactivated; this is equivalent to a reduction factor of 10,000); Virucidal activity HV [2, 6]: (+) ((+) means that more than 99.99% of all viruses were inactivated; this is equivalent to a reduction factor of 10,000) |
| Cc1cc(O)ccc1C(C)C [4-isopropyl-3-methylphenol] | (+) ((+) means that more than 99.99% of all viruses were inactivated; this is equivalent to a reduction factor of 10,000) | (+) ((+) means that more than 99.99% of all viruses were inactivated; this is equivalent to a reduction factor of 10,000) | (+) ((+) means that more than 99.99% of all viruses were inactivated; this is equivalent to a reduction factor of 10,000) | (+) ((+) means that more than 99.99% of all viruses were inactivated; this is equivalent to a reduction factor of 10,000) | (+) ((+) means that more than 99.99% of all viruses were inactivated; this is equivalent to a reduction factor of 10,000) | (+) ((+) means that more than 99.99% of all viruses were inactivated; this is equivalent to a reduction factor of 10,000) | (+) ((+) means that more than 99.99% of all viruses were inactivated; this is equivalent to a reduction factor of 10,000) | (+) ((+) means that more than 99.99% of all viruses were inactivated; this is equivalent to a reduction factor of 10,000) | (+) ((+) means that more than 99.99% of all viruses were inactivated; this is equivalent to a reduction factor of 10,000) | (+) ((+) means that more than 99.99% of all viruses were inactivated; this is equivalent to a reduction factor of 10,000) | (+) ((+) means that more than 99.99% of all viruses were inactivated; this is equivalent to a reduction factor of 10,000) | (+) ((+) means that more than 99.99% of all viruses were inactivated; this is equivalent to a reduction factor of 10,000) | (+) ((+) means that more than 99.99% of all viruses were inactivated; this is equivalent to a reduction factor of 10,000) | (+) ((+) means that more than 99.99% of all viruses were inactivated; this is equivalent to a reduction factor of 10,000) | (+) ((+) means that more than 99.99% of all viruses were inactivated; this is equivalent to a reduction factor of 10,000) | (+) ((+) means that more than 99.99% of all viruses were inactivated; this is equivalent to a reduction factor of 10,000) | (+) ((+) means that more than 99.99% of all viruses were inactivated; this is equivalent to a reduction factor of 10,000) | (+) ((+) means that more than 99.99% of all viruses were inactivated; this is equivalent to a reduction factor of 10,000) | (+) ((+) means that more than 99.99% of all viruses were inactivated; this is equivalent to a reduction factor of 10,000) | (+) ((+) means that more than 99.99% of all viruses were inactivated; this is equivalent to a reduction factor of 10,000) | Virucidal activity HV ([2]; 1 wt.-percent in water, 1 min): (+) ((+) means that more than 99.99% of all viruses were inactivated; this is equivalent to a reduction factor of 10,000); Virucidal activity HV ([2]; 1 wt.-percent in water, 10 min): (+) ((+) means that more than 99.99% of all viruses were inactivated; this is equivalent to a reduction factor of 10,000); Virucidal activity HV ([2]; 10 wt.-percent in water, 1 min): (+) ((+) means that more than 99.99% of all viruses were inactivated; this is equivalent to a reduction factor of 10,000); Virucidal activity HV [2, 5]: (+) ((+) means that more than 99.99% of all viruses were inactivated; this is equivalent to a reduction factor of 10,000) |
